Experimental data reported in the NIST ThermoML archive (doi:10.1016/j.jct.2005.10.004).
Values joined by “and” are separate entries in the source; they are usually repeats but may differ in a detail not shown here. Equal values may be shown once. Numbers after ± are expanded uncertainties.

Assay: xn = mol fraction of the nth substance listed
Conditions: Gas, Buoyancy - hydrostatic balance with magnetic suspension - one sinker

N#N [nitrogen] + C gave a mass density (349.99 K, 14938 kPa, x2 = 0.8) of 99.2371 ± 0.024 kg/m3, a mass density (349.99 K, 14942 kPa, x2 = 0.8) of 99.2671 ± 0.024 kg/m3 and a mass density (349.99 K, 17029 kPa, x2 = 0.8) of 112.731 ± 0.028 kg/m3. It also gave a mass density (350 K, 1986.4 kPa, x2 = 0.8998) of 11.9478 ± 0.0054 kg/m3, a mass density (350 K, 1986.5 kPa, x2 = 0.8998) of 11.9485 ± 0.0054 kg/m3 and a mass density (350 K, 3975.2 kPa, x2 = 0.8998) of 24.2393 ± 0.0067 kg/m3. The mass density (350 K, 5966.2 kPa, x2 = 0.8998) was 36.8151 ± 0.0092 kg/m3, the mass density (350 K, 8018.7 kPa, x2 = 0.8998) was 49.9871 ± 0.012 kg/m3 and the mass density (350 K, 10026 kPa, x2 = 0.8998) was 62.975 ± 0.015 kg/m3. It also gave a mass density (350 K, 12032 kPa, x2 = 0.8998) of 75.9524 ± 0.019 kg/m3, a mass density (350 K, 12033 kPa, x2 = 0.8998) of 75.9539 ± 0.019 kg/m3 and a mass density (350 K, 13967 kPa, x2 = 0.8998) of 88.3679 ± 0.022 kg/m3. For the same compound, the mass density (350 K, 13968 kPa, x2 = 0.8998) was 88.373 ± 0.022 kg/m3, the mass density (350 K, 16066 kPa, x2 = 0.8998) was 101.591 ± 0.025 kg/m3 and the mass density (350 K, 16068 kPa, x2 = 0.8998) was 101.601 ± 0.025 kg/m3. It also gave a mass density (350 K, 16070 kPa, x2 = 0.8998) of 101.613 ± 0.025 kg/m3, a mass density (350 K, 16189 kPa, x2 = 0.8998) of 102.36 ± 0.026 kg/m3 and a mass density (350 K, 18024 kPa, x2 = 0.8998) of 113.606 ± 0.028 kg/m3. For the same compound, the mass density (350 K, 19983 kPa, x2 = 0.8998) was 125.244 ± 0.031 kg/m3, the mass density (350 K, 19984 kPa, x2 = 0.8998) was 125.244 ± 0.031 kg/m3 and the mass density (350.01 K, 8197.7 kPa, x2 = 0.8) was 54.0918 ± 0.013 kg/m3. For the same compound, the mass density (350.01 K, 8197.9 kPa, x2 = 0.8) was 54.0933 ± 0.013 kg/m3, the mass density (350.01 K, 10149 kPa, x2 = 0.8) was 67.2887 ± 0.017 kg/m3 and the mass density (350.01 K, 11859 kPa, x2 = 0.8) was 78.8049 ± 0.02 kg/m3. For the same compound, the mass density (350.01 K, 11862 kPa, x2 = 0.8) was 78.8216 ± 0.02 kg/m3, the mass density (400 K, 4571.9 kPa, x2 = 0.8) was 25.5965 ± 0.0071 kg/m3 and the mass density (400 K, 5986.1 kPa, x2 = 0.8998) was 31.5654 ± 0.008 kg/m3. It also gave a mass density (400 K, 8029.2 kPa, x2 = 0.8998) of 42.4672 ± 0.01 kg/m3, a mass density (400 K, 9750.2 kPa, x2 = 0.8) of 54.7419 ± 0.014 kg/m3 and a mass density (400 K, 12023 kPa, x2 = 0.8998) of 63.6651 ± 0.015 kg/m3. It also gave a mass density (400 K, 13644 kPa, x2 = 0.8) of 76.2876 ± 0.019 kg/m3, a mass density (400 K, 14030 kPa, x2 = 0.8998) of 74.1643 ± 0.018 kg/m3 and a mass density (400 K, 18095 kPa, x2 = 0.8998) of 94.8699 ± 0.023 kg/m3. The mass density (400 K, 18098 kPa, x2 = 0.8998) was 94.8835 ± 0.023 kg/m3, the mass density (400 K, 19369 kPa, x2 = 0.8998) was 101.162 ± 0.025 kg/m3 and the mass density (400.01 K, 2027.7 kPa, x2 = 0.8998) was 10.5861 ± 0.0053 kg/m3. For the same compound, the mass density (400.01 K, 4038.9 kPa, x2 = 0.8998) was 21.2078 ± 0.0063 kg/m3, the mass density (400.01 K, 4040.2 kPa, x2 = 0.8998) was 21.2133 ± 0.0063 kg/m3 and the mass density (400.01 K, 8029.4 kPa, x2 = 0.8998) was 42.4641 ± 0.01 kg/m3. The mass density (400.01 K, 10035 kPa, x2 = 0.8998) was 53.1468 ± 0.013 kg/m3 and 53.1474 ± 0.013 kg/m3, the mass density (400.01 K, 14024 kPa, x2 = 0.8998) was 74.1363 ± 0.018 kg/m3 and the mass density (400.01 K, 15973 kPa, x2 = 0.8998) was 84.171 ± 0.021 kg/m3. It also gave a mass density (400.01 K, 15985 kPa, x2 = 0.8998) of 84.2306 ± 0.021 kg/m3, a mass density (400.01 K, 19362 kPa, x2 = 0.8998) of 101.12 ± 0.025 kg/m3 and a mass density (400.07 K, 1968.6 kPa, x2 = 0.8) of 10.9663 ± 0.0053 kg/m3. The mass density (400.07 K, 5054.8 kPa, x2 = 0.8) was 28.3114 ± 0.0076 kg/m3, the mass density (400.07 K, 7579.8 kPa, x2 = 0.8) was 42.5457 ± 0.01 kg/m3 and the mass density (400.07 K, 7586.8 kPa, x2 = 0.8) was 42.5825 ± 0.01 kg/m3. It also gave a mass density (400.07 K, 10122 kPa, x2 = 0.8) of 56.8069 ± 0.015 kg/m3, a mass density (400.07 K, 10130 kPa, x2 = 0.8) of 56.8516 ± 0.015 kg/m3 and a mass density (400.07 K, 13112 kPa, x2 = 0.8) of 73.3611 ± 0.02 kg/m3. The mass density (400.07 K, 13116 kPa, x2 = 0.8) was 73.3802 ± 0.02 kg/m3, the mass density (400.07 K, 13262 kPa, x2 = 0.8) was 74.1822 ± 0.02 kg/m3 and the mass density (400.07 K, 15317 kPa, x2 = 0.8) was 85.3273 ± 0.021 kg/m3. For the same compound, the mass density (400.07 K, 15324 kPa, x2 = 0.8) was 85.3629 ± 0.021 kg/m3, the mass density (400.07 K, 17285 kPa, x2 = 0.8) was 95.7881 ± 0.025 kg/m3 and the mass density (400.07 K, 17324 kPa, x2 = 0.8) was 95.9938 ± 0.025 kg/m3.
